For data set [1] the following is noted: cited from earlier work.
For another data set, the target named is T1, PTP1B (Homo sapiens, UniProt P18031).
T1 sequence (P18031 1-435): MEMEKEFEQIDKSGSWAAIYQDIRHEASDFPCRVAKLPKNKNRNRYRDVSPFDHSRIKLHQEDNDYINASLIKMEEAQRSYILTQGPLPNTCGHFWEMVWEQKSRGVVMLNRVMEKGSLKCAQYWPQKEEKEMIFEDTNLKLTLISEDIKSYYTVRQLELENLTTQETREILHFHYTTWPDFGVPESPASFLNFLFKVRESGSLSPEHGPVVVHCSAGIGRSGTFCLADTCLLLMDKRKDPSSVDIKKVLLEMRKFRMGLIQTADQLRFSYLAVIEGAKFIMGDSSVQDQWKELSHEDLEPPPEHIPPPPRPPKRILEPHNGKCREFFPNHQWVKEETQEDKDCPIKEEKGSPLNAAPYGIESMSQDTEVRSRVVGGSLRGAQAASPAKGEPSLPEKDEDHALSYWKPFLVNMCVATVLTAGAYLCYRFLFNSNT
The experiment in a line: Kinetic constants of pY peptides against PTP1B. Format: biochemical. The following applies: pH 7.4, peptide as substrate.

What is called Km is the substrate concentration at which the rate is half of its maximum. In general, kcat refers to the maximal rate divided by the concentration of active sites. A word on the kcat/KM: it is the turnover number divided by the Michaelis constant.

With `N[C@@H](Cc1cc(F)c(O)c(F)c1)C(=O)O` [Compound 1, 3,5-difluorotyrosine], the “side chain pKa” value in data set [1] was 7.2.
DDTF2YDpYAA-NH2 [Peptide 6]: on PTP1B, the Km was found to be 13 ± 3 µM, the kcat was 36 ± 2 s⁻¹ and the kcat/KM turned out to be 2.7e+06 M⁻¹ s⁻¹.
Take DDTYDpYAA-NH2 [Peptide 7]: on PTP1B, the Km came out at 14 ± 2 µM, the kcat was 33 ± 1 s⁻¹ and the kcat/KM amounted to 2.3e+06 M⁻¹ s⁻¹.
Take DNLF2YpYWD-NH2 [Peptide 4]: on PTP1B, the Km amounted to 3.6 ± 0.4 µM, the kcat is 36 ± 1 s⁻¹ and the catalytic efficiency (kcat/KM) came to 1e+07 M⁻¹ s⁻¹.
Regarding REYEFpYAA-NH2 [Peptide 9], at PTP1B, the Km is 6 ± 0.7 µM, the kcat amounted to 33 ± 1 s⁻¹ and the kcat/KM was 5.4e+06 M⁻¹ s⁻¹.
